Reference: US8486962B2, “Antifungal agents” (F2G Ltd., priority 2005, dated 2013)
≈ marks a conversion by molar mass, not a printed value.

What was measured:
Candida albicans = assay: MIC, RPMI medium, Candida albicans; format: cell-based; details: read-out: MIC C. albicans
Method: (§1) Measurement of Minimum Inhibitory Concentrations (MICs)
(§2) Between 1 and 5 mgs of compound were accurately weighed out into a sterile Eppendorf tube. The compound was dissolved in DMSO to give a solution containing 5 mg/ml. Tubes were stored at −20° C. until required.
(§3) On the day of testing thawed solutions were vortex mixed to ensure homogeneity. 30 μl of solution was removed and added to 570 μl of sterile water in a separate sterile Eppendorf. The thoroughly mixed solution was used to prepare a series of doubling dilutions in water, in a deep well plate. Eleven replicate plates were prepared using a Minitrak by aspirating 20 μl from each well into eleven clear polystyrene 96 well plates.
(§4) Spores of Aspergillus spp (Aspergillus fumigatus, Aspergillus terreus, Aspergillus niger and Aspergillus flavus) were harvested from cultures grown on Sabarauds agar for 5 days, and resuspended in PBS/Tween 80 to approx 1×10^7 cfu/ml Other filamentous fungi (Fusarium solani, Scedosporium spp., Trichophyton spp., Absidia corymbifera), were grown on Sabarauds agar for 2-10 days and spores/hyphae resuspended in PBS/Tween to give approx 1×10^7 cfU/ml. Candida species (Candida albicans, Candida glabrata, Candida krusei, Candida parapsilosis and Candida tropicalis) were grown on Sabarauds agar, cells were harvested from the agar using a sterile loop and resuspended in PBS/Tween 80 to approx 1×10^6 cfu/ml. Each organism suspension was diluted in RPMI medium, containing 2% glucose and 0.135M MOPS buffer (pH7.0) to 2×10^4 cfu/ml for Aspergillus spp and other filamentous fungi and 2×10^3 cfu/ml for yeast. 80 μl of an organism suspension was added to each well of the plate containing drug dilutions.
(§5) This produced MIC plates with a drug range 50-0.05 mg/L and organism inocula of 1-2×10^4 cfu/ml for Aspergillus spp and other filamentous fungi and 1-2×10^3 cfu/ml for yeasts. All plates were incubated for 24-48 hrs at 35° C. Growth was assessed by monitoring the optical density at 485 nm for each well. The MIC of a compound is the lowest drug concentration that inhibits growth of an organism by >80% compared with a drug free control. MICs are recorded as mg/L. Other growth media can be used for susceptibility testing, and the activity of the described compounds can also be assessed in a medium comprising, 1% glucose, 1% ammonium chloride and 0.5% yeast extract (YAG medium). To perform MIC tests in this medium, dilutions of compounds are prepared in microtitre plates as described above. Fungal strains to be tested are grown and harvested in an identical manner to that described above, each organism suspension is then diluted in YAG medium to 2×10^4 cfu/ml for Aspergillus spp and other filamentous fungi and 2×10^3 cfu/ml for yeast. 80 μl of an organism suspension was added to each well of the plate containing drug dilutions. This produced MIC plates with a drug range 50-0.05 mg/L and organism inocula of 1-2×10^4 cfu/ml for Aspergillus spp and other filamentous fungi and 1-2×10^3 cfu/ml for yeasts. All plates were incubated for 24 hrs at 35° C. Growth was assessed by monitoring the optical density at 485 nm for each well. The MIC of a compound is the lowest drug concentration that inhibits growth of an organism by >70% compared with a drug free control. MICs are recorded as mg/L. In cases where the MIC of an organism is […]0.05 mg/L the MIC is repeated using a concentration range of 0.5-0.0005 mg/L. MIC tests in YAG medium have more clear-cut endpoints and have slightly lower MICS than those performed in RPMI medium.
(§6) The following organisms were tested: Aspergillus fumigatus AF293 and Aspergillus fumigatus AF210, Aspergillus niger, Aspergillus terreus, Aspergillus favus, Candida albicans, Candida krusei, Candida tropicalis, Candida glabrata, Candida parapsilosis, Trichophyton rubrum, Trichophyton mentagrophytes, Scedosporium prolificans, Scedosporium apiospermum, Absidia corymbifera, Fusarium solani.

[1] = test system: Aspergillus fumigatus AF210; assay: MIC, YAG medium, Aspergillus fumigatus AF210; format: cell-based; details: Aspergillus fumigatus, AF210; YAG medium; read-out: MIC A Fum. 210
Summary of the method: (§7)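 Yeast: RPMI + 2% glucose + 0.135M MOPS pH7.0, 1-2×10^3 cfu/ml, 35° C 24-48 h, OD485, MIC at >80% inhib. Aspergillus: YAG (1% glucose, 1% NH4Cl, 0.5% yeast extract), spores 1-2×10^4 cfu/ml, 35° C 24 h, MIC at >70% inhib. Range 50-0.05 mg/L.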

Aspergillus terreus = assay: MIC, YAG medium, Aspergillus terreus; format: cell-based; details: Aspergillus terreus; YAG medium; read-out: MIC A Terreus 4
Summary of the method: as §7

Candida krusei = assay: MIC, RPMI medium, Candida krusei; format: cell-based; details: Pichia kudriavzevii, read-out: MIC C. krusei
Method: as §1, §2, §3, §4, §5, §6

Candida parapsilosis = assay: MIC, RPMI medium, Candida parapsilosis; format: cell-based; details: Lodderomyces parapsilosis, read-out: MIC C. parapsilosis
Method: as §1, §2, §3, §4, §5, §6

[2] = test system: Aspergillus fumigatus AF293; assay: MIC, YAG medium, Aspergillus fumigatus AF293; format: cell-based; details: Aspergillus fumigatus, AF293; YAG medium; read-out: MIC A Fum. 293
Summary of the method: as §7

Aspergillus niger = assay: MIC, YAG medium, Aspergillus niger; format: cell-based; details: Aspergillus niger; YAG medium; read-out: MIC A Niger 1
Summary of the method: as §7

Candida tropicalis = assay: MIC, RPMI medium, Candida tropicalis; format: cell-based; details: read-out: MIC C. tropicalis
Method: as §1, §2, §3, §4, §5, §6

Candida glabrata = assay: MIC, RPMI medium, Candida glabrata; format: cell-based; details: Nakaseomyces glabratus, read-out: MIC C. glabrata
Method: as §1, §2, §3, §4, §5, §6

Aspergillus flavus = assay: MIC, YAG medium, Aspergillus flavus; format: cell-based; details: Aspergillus flavus; YAG medium; read-out: MIC A Flavus 01
Summary of the method: as §7

A Terreus 49 = assay: MIC, YAG medium, A Terreus 49; format: cell-based, Aspergillus terreus; details: Aspergillus terreus; YAG medium; read-out: MIC A Terreus 49
Summary of the method: as §7

MIC (Candida albicans) [µg/mL] | MIC [1] [µg/mL] | MIC (Aspergillus terreus) [µg/mL] | MIC (Candida krusei) [µg/mL] | MIC (Candida parapsilosis) [µg/mL] | MIC [2] [µg/mL] | MIC (Aspergillus niger) [µg/mL] | MIC (Candida tropicalis) [µg/mL] | MIC (Candida glabrata) [µg/mL] | MIC (Aspergillus flavus) [µg/mL] | MIC (A Terreus 49) [µg/mL] | SMILES
> 50 | 0.4 (≈ 0.977 µM) | 0.1 (≈ 0.244 µM) | > 50 | > 50 | 0.8 (≈ 1.95 µM) | 0.4 (≈ 0.977 µM) | > 50 | 25 (≈ 61.1 µM) | 0.05 (≈ 0.122 µM) |  | O=C(Nc1ccc(C(F)(F)F)cc1)C(=O)c1c(-c2cccnc2)cc2ccccn12 [Example 212, 2-Oxo-2-(2-pyridin-3-yl-indolizin-3-yl)-N-(4-trifluoromethyl-phenyl)-acetamide]
6.25 (≈ 14.5 µM) | 0.015 (≈ 0.0347 µM) | 0.05 (≈ 0.116 µM) | 50 (≈ 116 µM) | 50 (≈ 116 µM) | 0.05 (≈ 0.116 µM) | 0.05 (≈ 0.116 µM) | 25 (≈ 57.8 µM) | 50 (≈ 116 µM) | 0.05 (≈ 0.116 µM) | 0.12 (≈ 0.277 µM) | O=C(Nc1ccc(Nc2ccccn2)cc1)C(=O)c1c(-c2ccccc2)cc2ccccn12 [Example 270, 2-Oxo-2-(2-phenyl-indolizin-3-yl)-N-[4-(pyridin-2-ylamino)-phenyl]-acetamide]
1.6 (≈ 3.66 µM) | 0.5 (≈ 1.14 µM) | 0.12 (≈ 0.274 µM) | 50 (≈ 114 µM) | 25 (≈ 57.1 µM) | 0.25 (≈ 0.571 µM) | 0.5 (≈ 1.14 µM) | 6.25 (≈ 14.3 µM) | 50 (≈ 114 µM) | 0.062 (≈ 0.142 µM) | 0.12 (≈ 0.274 µM) | O=C1CCN(c2ccc(NC(=O)C(=O)c3c(-c4ccccc4)cc4ccccn34)cc2)CC1 [Example 272, 2-Oxo-N-[4-(4-oxo-piperidin-1-yl)-phenyl]-2-(2-phenyl-indolizin-3-yl)-acetamide]
25 (≈ 53.5 µM) | 0.03 (≈ 0.0642 µM) | 0.03 (≈ 0.0642 µM) | > 50 | > 50 | 0.05 (≈ 0.107 µM) | 0.4 (≈ 0.856 µM) | > 50 | > 50 | 0.03 (≈ 0.0642 µM) | 0.015 (≈ 0.0321 µM) | COC(=O)C1CCCN1c1ccc(NC(=O)C(=O)c2c(-c3ccccc3)cc3ccccn23)cc1 (stereo not shown) [Example 275, 1-{4-[2-Oxo-2-(2-phenyl-indolizin-3-yl)-acetylamino]-phenyl}-pyrrolidine-2-carboxylic acid methyl ester]
3.1 (≈ 7.59 µM) | 50 (≈ 122 µM) | 25 (≈ 61.2 µM) | 50 (≈ 122 µM) | 50 (≈ 122 µM) | 50 (≈ 122 µM) | 50 (≈ 122 µM) | 25 (≈ 61.2 µM) | 50 (≈ 122 µM) | 50 (≈ 122 µM) | 25 (≈ 61.2 µM) | O=C(Nc1ccc(-c2nnn[nH]2)cc1)C(=O)c1c(-c2ccccc2)cc2ccccn12 [Example 271, 2-Oxo-2-(2-phenyl-indolizin-3-yl)-N-[4-(1H-tetrazol-5-yl)-phenyl]-acetamide]
50 (≈ 155 µM) |  |  | > 50 | 50 (≈ 155 µM) |  |  | 12.5 (≈ 38.7 µM) | > 50 |  |  | COCCNC(=O)C(=O)c1c(-c2cccnc2)cc2ccccn12 [Example 185, N-(2-Methoxy-ethyl)-2-oxo-2-(2-pyridin-3-yl-indolizin-3-yl)-acetamide]
3.1 (≈ 7.25 µM) | > 50 | > 50 | > 50 | 50 (≈ 117 µM) | 50 (≈ 117 µM) | > 50 | 12.5 (≈ 29.2 µM) | > 50 | 50 (≈ 117 µM) | 12.5 (≈ 29.2 µM) | CN(C)c1ccc(NC(=O)C(=O)c2c(-c3ccccc3)cc3ccccn23)cc1C(=O)O [Example 274, 2-Dimethylamino-5-[2-oxo-2-(2-phenyl-indolizin-3-yl)-acetylamino]-benzoic acid]
